Source: US11491105B2, “Methods of treating microbial infections, including mastitis” (priority 2013, dated 2022)

What was measured:
MRSA 9 [1] = assay: Macrodilution time-kill assay; assay type: cell-based, Staphylococcus aureus; conditions: 24 hours
Description: Due to the detection limit of the OD measurements, the time-kill assays were also performed in macrodilution. In 15 mL tubes, 9 mL volumes of the test compounds in CAMHB were prepared at one, four and eight times the MIC concentration and 9 mL volumes of ampicillin were prepared in CAMHB at one and four times the MIC. 1 mL of a 4 to 5×10^6 bacterial suspension (as prepared for MIC testing) was added to each of the tubes as well as a growth control tube containing only 9 mL of CAMHB. These tubes were incubated at 37° C. in an orbital shaker rotating at 100 rpm for 24 hours. At 0, 1, 4, 8, 12 and 24 hours after addition of the bacteria, 100 μL samples were removed from each tube and serial diluted in 9.1 g/L saline solution. The dilutions were then plated in duplicate onto plate count agar and incubated for 24 hours at 37° C. After incubation, viable counts were obtained from the number of colonies visible on the agar and these were used to calculate the number of CFU/mL at each time point. For the macrodilution time-kill analysis, only the ATCC 49775 reference strain and MRSA 9 were assessed in order to further investigate the antibacterial activity against methicillin-resistant strains. These macrodilution time-kill assays were independently repeated and bactericidal activity was defined as a ≥3 log decrease in the number of CFU/mL.

[2] = system: Staphylococcus isolates (methicillin-sensitive and methicillin-resistant); assay: Minimum inhibitory concentration assay (Example 1); assay type: cell-based; conditions: methicillin-resistant isolates
Description: Forty-two isolates of Staphylococcus of varying species and strain type were collected from isolate collections. Biochemical testing including coagulase, latex agglutination testing for protein A, Vogues-Proskauer tests and resistance to polymyxin B were used to identify the species of Staphylococcus. All isolates were also screened for resistance to various antimicrobials commonly used for the treatment of infections. This was performed using the disk diffusion method and resistance standards as outlined by the CLSI. The following antimicrobials were used: amoxicillin-clavulanic acid (30 μg), cephalothin (30 μg), clindamycin (2 μg), enrofloxacin (5 μg), erythromycin (15 μg), gentamicin (10 μg), imipenem (10 μg), oxacillin (1 μg), penicillin G (10 units), tetracycline (30 μg), 1:19 trimethoprim-sulfamethoxazole (25 μg) and vancomycin (30 μg).
Minimum inhibitory concentration tests were performed according to CLSI Standards (CLSI 2012). 90 μL of one of the test compound solutions, or ampicillin, was added to the end column of a 96 well plate that contained 90 μL of CAMHB in each well. The solutions were then serially diluted across the row, leaving 2 columns for positive and negative controls (FIG. 2). A bacterial suspension was prepared by adding fresh colonies obtained from an overnight culture on Sheep Blood Agar (SBA) to a 9.1 g/L saline solution. This suspension was adjusted to a concentration of between 4×10^8 and 5×10^8 CFU/mL. Concentration of the suspension was determined by measuring optical density (OD) using a spectrophotometer at a wavelength of 600 nm where the correct concentration was determined to have an optical density of between 1.00 and 1.20. 1 mL of this suspension was added to 9 mL of saline before being added to all wells, excluding the negative control wells, in 10 μL volumes giving a final concentration of between 4×10^5 and 5×10^5 CFU/mL in each well. The tests were then incubated for 24 hours at 37° C. and then assessed both visually and using OD readings from a microplate reader at a wavelength of 600 nm. These tests were performed in duplicate but repeated if discrepancies were observed.
The minimum inhibitory concentration (MIC) was determined to be the lowest concentration of antibiotic that prevented growth of bacteria both visually and using OD readings. Direct statistical comparisons between the test compounds and ampicillin could not be performed in light of confidential information restrictions, such as restrictions on disclosure of information relating to the compound structure, such as molecular weight. Instead, MIC values were collated and used to determine the lowest concentration of each compound that was effective against 50% and 90% of isolates, referred to as the MIC50 and MIC90 respectively. These values as well as the range of MIC values were then used for direct comparisons between test compounds and for general comparisons with ampicillin.

[3] = Residue depletion of LP1369 in milk of treated mastitis quarters (Example 9); design: species or system lactating dairy cows; conditions: in vivo
Description: Data on concentrations of LP1369 in milk from 6 quarters for IVP 1 and IVP 2 treated at 6 occasions (6 consecutive milkings) after treatment was provided by the analytical laboratory at the School of Pharmacy, University of South Australia, Adelaide, SA, Australia. The limit of quantification (LoQ) of the method for LP1369 in milk was 0.088 mg/L. The Maximum Residues level (MRL) for LP1369 is 0.010 mg/kg according to the APVMA, December 2013, Agricultural and Veterinary Chemicals Code Instrument No. 4 (MRL Standard) 2012.
In milk samples where LP1369 levels were below the LoQ, LP1369 concentration was set to 0.0001 mg/L.
Therefore, the concentrations of LP1369 in whole milk were log-transformed before calculating means and standard deviations (weighted by the volume of milk produced by each animal) for each time point, using Microsoft Excel 2010.
The determination of the depletion of any substance from milk is affected by the size of the population studied. As the number of sampled cows in this study was small, the g′ factor (a factor that provides a 99% confidence interval so that results are likely to be representative of the population) was applied to the analysis. The possibility of dispersed data was minimised by fixing the g′ factor for a population of 20 animals.
The following assumptions were made. […]

[4] = APVMA, December 2013, MRL Standard 2012; cited from earlier work
MRSA 9 [5] = assay: Microdilution time-kill assay; assay type: cell-based, Staphylococcus aureus; conditions: 1×MIC; increase evident after 24 hours
Description: Following assessment of MIC and MBC results, two compounds were chosen for analysis using microdilution time-kill assays, LP 1369 and LP 6315 and these were compared to ampicillin. Time-kill assays were performed according to the M26-A guidelines of the CLSI, with modifications. The test compounds and ampicillin were serial diluted in CAMHB across the rows of a 96 well plate and a bacterial suspension was prepared and added in the same manner as the MIC testing. […] The time points assessed were 0, 1, 2, 4, 8, 12, 24 and 48 hours after the addition of the bacterial suspension to the wells. Each test compound was tested in triplicate while ampicillin was tested in duplicate and this test was independently repeated. The bacterial strains used for the microdilution assays were chosen based on bactericidal activity evident during MBC testing. One strain from each of the categories of Staphylococcus in the isolate collection (methicillin-sensitive, methicillin resistant and coagulase negative) were selected as well as the ATCC reference strain for comparison. These strains were strains MSS 1, MSS 11, MRSA 9 and the ATCC 49775 reference strain.

Compound | decrease in the number of viable bacteria (MRSA 9 [1]; all concentrations tested) [log10] | MIC50 and MIC90 values compared with ampicillin [2] | clearance from treated quarters with mastitis (in words) [3] | Maximum Residues level (MRL) [4] [mg/kg] | bactericidal or bacteriostatic (>=3 log decrease in CFU/mL = bactericidal) (MRSA 9 [1]; LP 6315: most concentrations) | decrease in colonies (MRSA 9 [1]; four times the MIC) [log10] | growth at 1×MIC (MRSA 9 [5])
CC[C@@H](C(=O)[C@@H](C)[C@@H](O)[C@H](C)CCc1ccc(C)c(O)c1C(=O)O)[C@H]1O[C@](CC)([C@H]2CC[C@](O)(CC)[C@H](C)O2)C[C@@H]1C [LP 1369, Lasalocid] | < 3 | considerably lower than ampicillin | cleared rapidly | 0.010 |  |  | 
CO[C@@H]1[C@@H](OC)[C@H](C)[C@@](O)(CC(=O)O)O[C@H]1[C@H](C)[C@H]1O[C@@]2(CC[C@@](C)([C@H]3CC[C@@](C)([C@@H]4O[C@@H]([C@H]5O[C@](C)(O)[C@H](C)C[C@@H]5C)C[C@@H]4O[C@@H]4C[C@H](OC)[C@@H](OC)[C@H](C)O4)O3)O2)C[C@H](O)[C@H]1C.N [LP 6315, Maduramicin] |  | considerably lower than ampicillin |  |  | bacteriostatic | > 3 | after 48 hours this growth was no longer observed
